For one assay, the target named is T1, human-Arginase-1 (Homo sapiens, UniProt P05089).
T1 construct: expressed in transfected cells; host or cells: CHOK cells
T1 sequence (P05089 1-322): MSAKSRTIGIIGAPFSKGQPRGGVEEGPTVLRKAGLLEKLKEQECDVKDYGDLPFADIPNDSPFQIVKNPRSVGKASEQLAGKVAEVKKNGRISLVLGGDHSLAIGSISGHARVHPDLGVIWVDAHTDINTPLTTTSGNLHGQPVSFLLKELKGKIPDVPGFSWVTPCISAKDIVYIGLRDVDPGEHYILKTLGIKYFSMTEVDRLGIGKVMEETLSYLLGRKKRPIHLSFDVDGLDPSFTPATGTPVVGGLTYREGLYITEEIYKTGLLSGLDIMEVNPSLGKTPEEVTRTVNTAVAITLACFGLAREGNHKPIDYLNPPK
The assay is described as follows: Urea production in CHOK cells stably transfected with human-Arginase-1. In kind it is cell-based. The following applies: IC50 class, 5 mM arginine, 24 hours, read-out: CHOK Cell. How it is done:
Table 3 also provides CHOK cell based IC50 values for illustrative arginase inhibitors. IC50 values were determined by measuring the production of urea in CHOK cells stably transfected with human-Arginase-1.
Briefly, CHOK cells were stably transfected with human-arginase-1. To determiner the IC50 values for compounds in accordance with the present invention, parental CHOK cells and arginase-1 stably transfected cells were plated in a 96 well plate. Cells were plated using 200 μl of complete growth medium and incubated overnight at 37° C.
Media from each of the wells containing cells was first removed and growth media supplemented with arginine at a concentration of 5 mM was added to each well. The test compounds were dissolved in PBS buffer to the desired concentration and added to appropriate wells. The plate was then incubated at 37° C. for 24 hours. After 24 hours the plates were spun down at 3000 RPM for 5 min and 50 μl of the media were transferred to a new plate.
An aqueous solution of o-phthaldehyde, Brij, sulfuric acid, primaquine diphosphate and boric acid was added to each well and the plate was incubated for 10-15 minutes. The urea concentration in each well was determined by measuring the optical density at 520-530 nanometers using a standard curve. The IC50 values were calculated by measuring urea production at various concentrations of the inventive arginase inhibitors after subtracting the value related to the concentration of urea in control wells.

The next assay deals with T2, human arginase I (ARG I) (Homo sapiens, UniProt P05089).
T2 sequence (P05089 1-322): T1 sequence (P05089 1-322)
Description: Inhibition of arginase I, spectrophotometric urea assay at 530 nm.

The target in a further assay is T3, arginase II (ARG II) (Homo sapiens, UniProt P78540).
T3 sequence (P78540 23-354): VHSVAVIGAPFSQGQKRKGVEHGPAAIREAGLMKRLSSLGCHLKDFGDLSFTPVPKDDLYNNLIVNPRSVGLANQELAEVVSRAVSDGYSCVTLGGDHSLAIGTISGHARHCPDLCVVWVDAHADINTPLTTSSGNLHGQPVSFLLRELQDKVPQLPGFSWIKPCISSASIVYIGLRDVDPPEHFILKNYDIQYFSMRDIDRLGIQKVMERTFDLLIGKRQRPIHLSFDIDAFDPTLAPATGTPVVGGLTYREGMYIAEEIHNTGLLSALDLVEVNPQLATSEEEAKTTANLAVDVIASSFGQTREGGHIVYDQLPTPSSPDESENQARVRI
The assay is described as follows: Inhibition of arginase II, spectrophotometric urea assay at 530 nm.

The values that follow come from patent US9266908B2, “Inhibitors of arginase and their therapeutic applications” (MARS, INCORPORATED, priority 2011, dated 2016).

Each structure is given as a SMILES string.

For `CC(C)(C)c1ccc(CN[C@H]2C[C@@H](C(N)(CCCCB(O)O)C(=O)O)C2)cc1` (stereo partly drawn) [Example 6, (S)-2-amino-6-borono-2-((1s,3R)-3-(4-tert-butylbenzylamino)cyclobutyl)hexanoic acid], the IC50 lay in the range of 26 to 100 µM on human-Arginase-1, 0.026 to 0.1 µM on human arginase I (ARG I) and 0.026 to 0.1 µM on arginase II (ARG II).
For `NC(CCCCB(O)O)(C(=O)O)[C@H]1C[C@@H](NCc2cccc(-c3ccc(C(F)(F)F)cc3)c2)C1` (stereo partly drawn) [Example 8, (S)-2-amino-6-borono-2-((1s,3R)-3-((4′-(trifluoromethyl)biphenyl-3-yl)methylamino)cyclobutyl)hexanoic acid], the values for the IC50 at human-Arginase-1, on human arginase I (ARG I) and against arginase II (ARG II) were 1 to 25 µM, 0.0001 to 0.025 µM and 0.0001 to 0.025 µM, respectively.
Take `NC(CCCCB(O)O)(C(=O)O)[C@H]1C[C@@H](NCc2cccc(-c3ccc(Cl)cc3)c2)C1` (stereo partly drawn) [Example 9, (S)-2-amino-6-borono-2-((1s,3R)-3-((4′-chlorobiphenyl-3-yl)methylamino)cyclobutyl)hexanoic acid]: the IC50 on human-Arginase-1 fell in the range of 26 to 100 µM; on human arginase I (ARG I), 0.0001 to 0.025 µM; on arginase II (ARG II), 0.0001 to 0.025 µM.
For `NC(CCCCB(O)O)(C(=O)O)[C@H]1C[C@@H](NCc2ccc(F)c3ccccc23)C1` (stereo partly drawn) [Example 10, (S)-2-amino-6-borono-2-((1s,3R)-3-((4-fluoronaphthalen-1-yl)methylamino)cyclobutyl)hexanoic acid], the results for the IC50 on human-Arginase-1, on human arginase I (ARG I) and against arginase II (ARG II) were 1 to 25 µM, 0.0001 to 0.025 µM and 0.0001 to 0.025 µM, respectively.
Take `NC(CCCCB(O)O)(C(=O)O)[C@H]1C[C@@H](NCc2cccc3c(F)cccc23)C1` (stereo partly drawn) [Example 11, (S)-2-amino-6-borono-2-((1s,3R)-3-((5-fluoronaphthalen-1-yl)methylamino)cyclobutyl)hexanoic acid]: the IC50 on human-Arginase-1 lay in the range of 1 to 25 µM; on human arginase I (ARG I), 0.0001 to 0.025 µM; at arginase II (ARG II), 0.026 to 0.1 µM.
As for `NC(CCCCB(O)O)(C(=O)O)[C@H]1C[C@@H](NCc2c3ccccc3cc3ccccc23)C1` (stereo partly drawn) [Example 12, (S)-2-amino-2-((1s,3R)-3-(anthracen-9-ylmethylamino)cyclobutyl)-6-boronohexanoic acid], the IC50 on human-Arginase-1 fell in the range of 26 to 100 µM; at human arginase I (ARG I) it was 0.026 to 0.1 µM; on arginase II (ARG II), 0.0001 to 0.025 µM.
The like results for `NC(CCCCB(O)O)(C(=O)O)[C@H]1C[C@@H](NCc2ccccc2N2CCOCC2)C1` (stereo partly drawn) [Example 13, (S)-2-amino-6-borono-2-((1s,3R)-3-(2-morpholinobenzylamino)cyclobutyl)hexanoic acid] were, in that order, 26 to 100 µM, 0.026 to 0.1 µM and 0.026 to 0.1 µM.
Taken in the same sequence, the figures for `NC(CCCCB(O)O)(C(=O)O)[C@H]1C[C@@H](NCc2ccc3c(c2)CCO3)C1` (stereo partly drawn) [Example 15, (S)-2-amino-6-borono-2-((1s,3R)-3-((2,3-dihydrobenzofuran-5-yl)methylamino)cyclobutyl)hexanoic acid] were 1 to 25 µM, 0.026 to 0.1 µM and 0.026 to 0.1 µM.
The like results for `NC(CCCCB(O)O)(C(=O)O)[C@H]1C[C@@H](NCc2ccc(-c3ccc(Cl)c(Cl)c3)cc2)C1` (stereo partly drawn) [Example 16, (S)-2-amino-6-borono-2-((1s,3R)-3-((3′,4′-dichlorobiphenyl-4-yl)methylamino)cyclobutyl)hexanoic acid] were, in that order, 1 to 25 µM, 0.0001 to 0.025 µM and 0.0001 to 0.025 µM.
In the case of `NC(CCCCB(O)O)(C(=O)O)[C@H]1C[C@@H](NCc2ccc(-c3ccc(Cl)cc3)cc2)C1` (stereo partly drawn) [Example 17, (S)-2-amino-6-borono-2-((1s,3R)-3-((4′-chlorobiphenyl-4-yl)methylamino)cyclobutyl)hexanoic acid], the IC50 lay within 1 to 25 µM on human-Arginase-1, 0.0001 to 0.025 µM on human arginase I (ARG I) and 0.0001 to 0.025 µM on arginase II (ARG II).
Regarding `NC(CCCCB(O)O)(C(=O)O)[C@H]1C[C@@H](NCc2ccc(-c3ccc(C(F)(F)F)cc3)cc2)C1` (stereo partly drawn) [Example 18, (S)-2-amino-6-borono-2-((1s,3R)-3-((4′-(trifluoromethyl)biphenyl-4-yl)methylamino)cyclobutyl)hexanoic acid], the IC50 at human-Arginase-1 is 1 to 25 µM; at human arginase I (ARG I), 0.0001 to 0.025 µM; against arginase II (ARG II), 0.0001 to 0.025 µM.
For the compound `NC(CCCCB(O)O)(C(=O)O)[C@H]1C[C@@H](NCc2ccc(-c3ccc(F)cc3)cc2)C1` (stereo partly drawn) [Example 19, (S)-2-amino-6-borono-2-((1s,3R)-3-((4′-fluorobiphenyl-4-yl)methylamino)cyclobutyl)hexanoic acid], the IC50 fell in the range of 26 to 100 µM at human-Arginase-1, 0.0001 to 0.025 µM against human arginase I (ARG I) and 0.026 to 0.1 µM at arginase II (ARG II).
The like results for `NC(CCCCB(O)O)(C(=O)O)[C@H]1C[C@@H](NCc2ccc(Oc3ccc(Cl)cc3)cc2)C1` (stereo partly drawn) [Example 21, (S)-2-amino-6-borono-2-((1s,3R)-3-(4-(4-chlorophenoxy)benzylamino)cyclobutyl)hexanoic acid] were, in that order, 26 to 100 µM, 0.0001 to 0.025 µM and 0.0001 to 0.025 µM.
The like results for `NC(CCCCB(O)O)(C(=O)O)[C@H]1C[C@@H](NCc2ccccc2-c2ccc(Cl)cc2)C1` (stereo partly drawn) [Example 22, (S)-2-amino-6-borono-2-((1s,3R)-3-((4′-chlorobiphenyl-2-yl)methylamino)cyclobutyl)hexanoic acid] were, in that order, 26 to 100 µM, 0.026 to 0.1 µM and 0.026 to 0.1 µM.
Taken in the same sequence, the figures for `NC(CCCCB(O)O)(C(=O)O)[C@H]1C[C@@H](NCc2ccc(-c3ccccc3)nc2)C1` (stereo partly drawn) [Example 23, (S)-2-amino-6-borono-2-((1s,3R)-3-((6-phenylpyridin-3-yl)methylamino)cyclobutyl)hexanoic acid] were 1 to 25 µM, 0.026 to 0.1 µM and 0.0001 to 0.025 µM.
With `NC(CCCCB(O)O)(C(=O)O)[C@H]1C[C@@H](NCc2ccc3c(c2)Cc2ccccc2-3)C1` (stereo partly drawn) [Example 24, (S)-2-((1s,3R)-3-((9H-fluoren-2-yl)methylamino)cyclobutyl)-2-amino-6-boronohexanoic acid], the IC50 at human-Arginase-1 lay in the range of 26 to 100 µM; against human arginase I (ARG I) it was 0.0001 to 0.025 µM; against arginase II (ARG II), 0.0001 to 0.025 µM.
Turning to `NC(CCCCB(O)O)(C(=O)O)[C@H]1C[C@@H](NCc2ccccc2-c2ccc(C(F)(F)F)cc2)C1` (stereo partly drawn) [Example 25, (S)-2-amino-6-borono-2-((1s,3R)-3-((4′-(trifluoromethyl)biphenyl-2-yl)methylamino)cyclobutyl)hexanoic acid], the results for the IC50 on human-Arginase-1, at human arginase I (ARG I) and against arginase II (ARG II) were 26 to 100 µM, 0.026 to 0.1 µM and 0.026 to 0.1 µM, respectively.
As for `NC(CCCCB(O)O)(C(=O)O)[C@H]1C[C@@H](NCc2ccc(C3CCCCC3)cc2)C1` (stereo partly drawn) [Example 26, (S)-2-amino-6-borono-2-((1s,3R)-3-(4-cyclohexylbenzylamino)cyclobutyl)hexanoic acid], the IC50 was in the range of 26 to 100 µM on human-Arginase-1, 0.0001 to 0.025 µM at human arginase I (ARG I) and 0.026 to 0.1 µM on arginase II (ARG II).
Take `NC(CCCCB(O)O)(C(=O)O)[C@H]1C[C@@H](N(Cc2ccccc2)Cc2ccccc2)C1` (stereo partly drawn) [Example 27, (S)-2-amino-6-borono-2-((1s,3R)-3-(dibenzylamino)cyclobutyl)hexanoic acid]: the IC50 on human-Arginase-1 lay in the range of 26 to 100 µM; on human arginase I (ARG I), 0.101 to 0.5 µM; on arginase II (ARG II), 0.501 to 1.5 µM.
For the compound `CNC(CCCCB(O)O)(CCN1Cc2ccccc2C1)C(=O)O` (stereo not drawn) [Example 30, 6-borono-2-(2-(isoindolin-2-yl)ethyl)-2-(methylamino)hexanoic acid], the IC50 at human-Arginase-1 lay in the range of 1 to 25 µM; at human arginase I (ARG I), 0.101 to 0.5 µM; on arginase II (ARG II), 0.101 to 0.5 µM.
